Measurements published in PMC6268896, “Two New Diterpenoids from the Buds of Wikstroemia chamaedaphne” (Molecules, 2012).
Like-named read-outs stand apart in the source and are kept apart here.

How the values were obtained:
[1] = test system: MCF-7 (breast cancer) cells; experiment: MTT cytotoxicity assay, MCF-7; format: cell-based, human; details: MCF-7, MTT, 48 h, read-out: IC50 against MCF-7
Method: (§1) Compounds 1–10 were evaluated for their cytotoxic activities against five human cancer cell lines, HL-60 (human myeloid leukemia), SMMC-7721 (hepatocellular carcinoma), A549 (lung cancer), MCF-7 (breast cancer), and SW480 (colon cancer), and one human normal cell line BEAS-2B (human bronchial epithelial) by the MTT method. DDP (cis-platin) and taxol were used as positive controls.
(§2) Five human cancer cell lines, human myeloid leukemia HL-60, hepatocellular carcinoma SMMC-7721, lung cancer A549, breast cancer MCF-7, and colon cancer SW480 cells, together with one human normal cell line BEAS-2B (human bronchial epithelial), were assayed. Cells were cultured in RPMI-1640 or in DMEM medium (Hyclone, USA), supplemented with 10% fetal bovine serum (Hyclone, USA) in 5% CO2 at 37 °C. The antiproliferative assay was performed according to the MTT (3-(4,5-dimethylthiazol-2-yl)-2,5-diphenyl tetrazolium bromide) method in 96-well microplates, as reported previously, with slight modification. Briefly, 100 μL of adherent cells was seeded into each well of 96-well cell culture plates and allowed to adhere for 12 h before addition of test compounds, while suspended cells were seeded just before the addition of the drug with initial density of 1 × 10^5 cells/mL. Each cancer cell line was exposed to the tested compound at concentrations of 0.0625, 0.32, 1.6, 8, and 40 μM in triplicates for 48 h. Wells with DMSO were used as negative controls, and DDP (cis-platin, Sigma, USA) and taxol were used as a positive control. After compound treatment, cell viability was detected by a Bio-Rad 680 at λ = 595 nm and a cell growth curve was graphed. IC50 values were calculated by Reed and Muench’s method.

[2] = test system: BEAS-2B (human bronchial epithelial) cells; experiment: MTT cytotoxicity assay, BEAS-2B normal cell line; format: cell-based; details: BEAS-2B human normal cell line, 48 h, read-out: IC50 against BEAS-2B
Method: as §1, §2

A549 (lung cancer) cells = experiment: MTT cytotoxicity assay, A549; format: cell-based, human; details: A-549, MTT, 48 h, read-out: IC50 against A-549
Method: as §1, §2

[3] = test system: HL-60 (human myeloid leukemia) cells; experiment: MTT cytotoxicity assay, HL-60; format: cell-based; details: HL-60, MTT, 48 h, read-out: IC50 against HL-60
Method: as §1, §2

[4] = test system: SMMC-7721 (hepatocellular carcinoma) cells; experiment: MTT cytotoxicity assay, SMMC-7721; format: cell-based, human; details: SMMC-7721, MTT, 48 h, read-out: IC50 against SMMC-7721
Method: as §1, §2

[5] = test system: SW480 (colon cancer) cells; experiment: MTT cytotoxicity assay, SW480; format: cell-based, human; details: 48 h, read-out: IC50 against SW480
Method: as §1, §2

Compound	IC50 ([1]; Homo sapiens, MCF7) [µM]	IC50 [2] [µM]	IC50 (A549 (lung cancer) cells; Homo sapiens, A549) [µM]	IC50 ([3]; Homo sapiens) [µM]	IC50 ([4]; Homo sapiens) [µM]	IC50 ([5]; Homo sapiens) [µM]	IC50 [1] [µM]	IC50 (A549 (lung cancer) cells) [µM]	IC50 [3] [µM]	IC50 [4] [µM]	IC50 [5] [µM]
C=C(C)[C@]12C[C@@H](C)[C@@]34OC5(CCCCCCC[C@@H](C)[C@H]6[C@H](C)[C@H](O)[C@@](O)([C@H](O)[C@@]7(COC(=O)/C=C/c8ccccc8)O[C@H]7[C@H]3[C@H]1O5)[C@@H]64)O2 [Compound 1, wikstroelide Q]	> 40	> 40	> 40	26.4	> 40	> 40	–	–	–	–	–
C=C(C)[C@]12C[C@@H](C)[C@@]34OC5(CCCCCCC[C@H](C)[C@H]6[C@H](C)[C@H](OC(=O)c7ccccc7)[C@@](O)([C@H](O)[C@@]7(CO)O[C@H]7[C@H]3[C@H]1O5)[C@@H]64)O2 [Compound 2, pimelea factors P2]	12.8	17.4	12.1	13.8	17.5	15.9	–	–	–	–	–
C=C(C)[C@@]12C[C@@H](C)[C@@]34OC5(CCCCCCC[C@@H](C)[C@H]6[C@H](C)[C@H](OC(=O)c7ccccc7)[C@@](O)([C@H](O)[C@@]7(CO)O[C@H]7[C@H]3[C@H]1O5)[C@@H]64)O2 [Compound 3, pimelea factor P3]	14	15.4	11.1	13.3	14.9	14.4	–	–	–	–	–
CC(=O)O[C@@]12C[C@@H](C)[C@@]3(O)[C@@H](C=C(CO)C[C@]4(O)C(=O)C(C)=C[C@@H]34)[C@@H]1C2(C)C [Compound 4, prostratin]	16	17.4	12.6	15.6	18.1	13.3	–	–	–	–	–
CCCCC/C=C/C=C/C(=O)O[C@@H]1[C@@H](C)[C@@]2(O)[C@@H](C=C(CO)C[C@]3(O)C(=O)C(C)=C[C@@H]23)[C@@H]2C(C)(C)[C@]12OC(C)=O [Compound 5, prostratin Q]	15	16.6	15.8	15.8	15.1	14.8	–	–	–	–	–
COc1cc([C@H]2OC[C@H]3[C@@H]2CO[C@H]3c2ccc(O)c(OC)c2)ccc1O [Compound 6, (+)-epipioresinol]	> 40	> 40	> 40	> 40	> 40	> 40	–	–	–	–	–
COc1cc([C@H]2c3cc(O)c(OC)cc3C[C@@H](CO)[C@@H]2CO)ccc1O [Compound 7, (+)-isolariciresinol]	> 40	> 40	> 40	> 40	> 40	> 40	–	–	–	–	–
COc1cc(C[C@@H]2CO[C@@H](c3ccc(O)c(OC)c3)[C@@H]2CO)ccc1O [Compound 8, (−)-lariciresinol]	> 40	> 40	> 40	> 40	> 40	> 40	–	–	–	–	–
O=C(c1ccc2c(c1)OCO2)[C@H]1CO[C@H](c2ccc3c(c2)OCO3)[C@H]1CO [Compound 9, (+)-epi-sesaminone]	> 40	> 40	> 40	> 40	> 40	> 40	–	–	–	–	–
COc1ccc(C[C@@H]2COC(=O)[C@H]2Cc2ccc(OC)c(O)c2)cc1O [Compound 10, prestegane B]	> 40	> 40	> 40	> 40	> 40	> 40	–	–	–	–	–
N.N.[Cl][Pt][Cl] [DDP ( cis-platin), cis-platin, reference compound]	–	8.61	–	–	–	–	16.9	14.1	1.25	16.2	18.1
CC(=O)O[C@H]1C(=O)[C@@]2(C)[C@H]([C@H](OC(=O)c3ccccc3)[C@]3(O)C[C@H](OC(=O)[C@H](O)[C@@H](NC(=O)c4ccccc4)c4ccccc4)C(C)=C1C3(C)C)[C@]1(OC(C)=O)CO[C@@H]1C[C@@H]2O [Taxol, taxol, reference compound]	< 0.008	5	< 0.008	< 0.008	< 0.008	< 0.008	–	–	–	–	–
